Publication PMC3253173 (Free radical biology & medicine, 2011)

Biological target: T1, gp91phox (Homo sapiens, UniProt P04839)
T1 sequence (P04839 2-570): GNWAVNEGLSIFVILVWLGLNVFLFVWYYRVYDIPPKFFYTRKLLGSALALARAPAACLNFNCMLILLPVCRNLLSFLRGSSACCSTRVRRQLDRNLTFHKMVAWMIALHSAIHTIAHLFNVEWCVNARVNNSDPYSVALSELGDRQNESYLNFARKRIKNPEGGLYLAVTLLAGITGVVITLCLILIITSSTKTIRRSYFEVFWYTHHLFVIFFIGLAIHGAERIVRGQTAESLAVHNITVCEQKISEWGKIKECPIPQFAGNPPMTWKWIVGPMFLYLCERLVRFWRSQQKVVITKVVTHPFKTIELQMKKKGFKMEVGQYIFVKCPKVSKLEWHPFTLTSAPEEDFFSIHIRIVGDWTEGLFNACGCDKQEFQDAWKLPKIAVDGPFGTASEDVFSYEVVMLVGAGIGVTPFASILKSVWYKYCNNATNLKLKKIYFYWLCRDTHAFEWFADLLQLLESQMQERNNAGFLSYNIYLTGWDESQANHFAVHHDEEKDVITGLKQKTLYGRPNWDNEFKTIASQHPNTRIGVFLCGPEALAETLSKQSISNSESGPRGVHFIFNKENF
T1 sequence (P13498 2-195 partner): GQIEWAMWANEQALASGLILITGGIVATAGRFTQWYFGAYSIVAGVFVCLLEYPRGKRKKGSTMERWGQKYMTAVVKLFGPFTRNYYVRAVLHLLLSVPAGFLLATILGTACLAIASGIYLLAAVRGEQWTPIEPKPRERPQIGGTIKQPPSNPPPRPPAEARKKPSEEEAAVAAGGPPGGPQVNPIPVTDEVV
Assay: saturation radioligand binding on COS-cytob558 membranes

In the case of C=C(C)[C@H]1Cc2c(ccc3c2O[C@@H]2COc4cc(OC)c(OC)cc4[C@@H]2C3=O)O1 [rotenone], the Kd is reported as 0.0212 ± 0.00347 µM.
